Here are results for 29 compounds from US8759342B2, “Benzo[1,4]oxazin-3-one, benzo[1,4]thiazin-3-one and quinolin-2-one urotensin II receptor antagonists” (Janssen Pharmaceutica NV, priority 2006, dated 2014).

For this assay, the target named is T1, rat GPR14 (U-II receptor) (Rattus norvegicus, UniProt P49684).
T1 construct: expressed in transfected cells
T1 sequence (P49684 1-386): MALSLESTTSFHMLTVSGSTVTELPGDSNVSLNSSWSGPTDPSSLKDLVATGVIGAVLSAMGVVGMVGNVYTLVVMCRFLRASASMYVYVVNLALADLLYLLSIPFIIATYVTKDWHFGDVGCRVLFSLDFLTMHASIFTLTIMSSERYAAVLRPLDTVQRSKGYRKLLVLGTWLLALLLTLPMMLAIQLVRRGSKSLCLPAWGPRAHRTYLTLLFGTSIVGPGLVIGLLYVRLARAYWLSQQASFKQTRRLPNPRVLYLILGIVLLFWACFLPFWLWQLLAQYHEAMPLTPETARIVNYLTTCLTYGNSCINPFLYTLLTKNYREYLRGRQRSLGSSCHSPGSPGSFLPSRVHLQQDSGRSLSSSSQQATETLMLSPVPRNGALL
Put plainly: Calcium flux assay (FLIPR). The class given is cell-based. Particulars: Inhibition of acetyl-cyclic[Cys-Phe-Trp-Lys-(2-Nal)-Cys]-NH2 (1 nM) induced Ca2+ mobilization (FLIPR) in CHO cells transfected with rat UII receptor; 5 min incubation. An excerpt: To derive these cells, the complete coding sequence of rat […] was amplified by nested PCR from rat heart marathon-Ready cDNA. […] The PCR products were cloned into pcDNA3 (Invitrogen) digested with EcoR I and Xba I. Clones containing rat U-II receptor were verified by complete sequencing of the U-II receptor insert to ensure a lack of PCR-introduced errors. The constructed vector was transfected into CHO cells by using lipofectamine (GIBCO BRL). CHO cells with high expression of rat U-II receptor were selected and established as stable cell lines by using G418. CHO cells were seeded at 25,000 cells per well into 96-well, black-wall, clear-bottom microtiter plates 24 hrs before assay. Cells in culture media (DMEM/F12 containing 15 mM HEPES, L-glutamine, pyridoxine hydrochloride; 10% fetal bovine serum; 1 mg/mL G418 sulfate; antibiotic-antimycotic; pH 7.4) were loaded with proprietary dye, from the FLIPR Calcium Assay Kit (Molecular Devices), prepared in assay buffer (Hanks Balanced Salts Solution, 20 mM HEPES, 0.1% BSA, 2.5 mM probenecid, pH 7.4), and incubated for 1 hr at 37° C. Calcium mobilization determinations were performed at room temperature (23° C.).
A general note: Calcium assays in cells follow changes in intracellular calcium, usually with a dye or a luminescent sensor.

Turning to `O=C(c1ccccc1C1CCN(CCN2C(=O)COc3ccccc32)CC1)N1CCc2ccccc2C1` [Cpd 53, 4-(2-{4-[2-(3,4-dihydro-1H-isoquinoline-2-carbonyl)-phenyl]-piperidin-1-yl}-ethyl)-4H-benzo[1,4]oxazin-3-one], the 50% inhibitory concentration (IC50) was 18 µM.

Regarding `O=C(NCCNC(=O)c1ccccc1C1CCN(CCN2C(=O)COc3ccccc32)CC1)Nc1ccc2ccccc2c1` [Cpd 54, N-[2-(3-naphthalen-2-yl-ureido)-ethyl]-2-{1-[2-(3-oxo-2,3-dihydro-benzo[1,4]oxazin-4-yl)-ethyl]-piperidin-4-yl}-benzamide], the IC50 amounted to 7 µM.

As to `COC(=O)c1cc(Cl)ccc1C1CCN(CCN2C(=O)COc3ccccc32)CC1` [Cpd 56, 5-chloro-2-{1-[2-(3-oxo-2,3-dihydro-benzo[1,4]oxazin-4-yl)-ethyl]-piperidin-4-yl}-benzoic acid methyl ester], the IC50 was 8 µM.

On to `CN(C)C(=O)c1cc(Cl)ccc1C1CCN(CCN2C(=O)COc3ccccc32)CC1` [Cpd 59, 5-chloro-N,N-dimethyl-2-{1-[2-(3-oxo-2,3-dihydro-benzo[1,4]oxazin-4-yl)-ethyl]-piperidin-4-yl}-benzamide], for which the IC50 was 10 µM.

Consider `O=C(NCCc1c[nH]c2ccccc12)c1cc(Cl)ccc1C1CCN(CCN2C(=O)COc3ccccc32)CC1` [Cpd 62, 5-chloro-N-[2-(1H-indol-3-yl)-ethyl]-2-{1-[2-(3-oxo-2,3-dihydro-benzo[1,4]oxazin-4-yl)-ethyl]-piperidin-4-yl}-benzamide], for which the IC50 turned out to be 0.9 µM.

For `O=C(NCC1CCN(C(=O)c2ccccc2)CC1)c1cc(Cl)ccc1C1CCN(CCN2C(=O)COc3ccccc32)CC1` [Cpd 64, N-(1-benzoyl-piperidin-4-ylmethyl)-5-chloro-2-{1-[2-(3-oxo-2,3-dihydro-benzo[1,4]oxazin-4-yl)-ethyl]-piperidin-4-yl}-benzamide], the IC50 was determined as 0.52 µM.

As for `O=C(NCCN1CCCCC1)c1cc(Cl)ccc1C1CCN(CCN2C(=O)COc3ccccc32)CC1` [Cpd 71, 5-chloro-2-{1-[2-(3-oxo-2,3-dihydro-benzo[1,4]oxazin-4-yl)-ethyl]-piperidin-4-yl}-N-(2-piperidin-1-yl-ethyl)-benzamide], the IC50 turned out to be 0.27 µM.

Turning to `O=C(NCCN1CCNCC1)c1cc(Cl)ccc1C1CCN(CCN2C(=O)COc3ccccc32)CC1` [Cpd 73, 5-chloro-2-{1-[2-(3-oxo-2,3-dihydro-benzo[1,4]oxazin-4-yl)-ethyl]-piperidin-4-yl}-N-(2-piperazin-1-yl-ethyl)-benzamide], the IC50 is 1.9 µM.

Take `CC(C)NC(=O)NCCCCCNC(=O)c1cc(Cl)ccc1C1CCN(CCN2C(=O)COc3ccccc32)CC1` [Cpd 80, 5-chloro-N-[5-(3-isopropyl-ureido)-pentyl]-2-{1-[2-(3-oxo-2,3-dihydro-benzo[1,4]oxazin-4-yl)-ethyl]-piperidin-4-yl}-benzamide]: the IC50 was determined as 0.21 µM.

Consider `O=C(NCCCCCNC(=O)c1cc(Cl)ccc1C1CCN(CCN2C(=O)COc3ccccc32)CC1)Nc1ccccc1` [Cpd 81, 5-chloro-2-{1-[2-(3-oxo-2,3-dihydro-benzo[1,4]oxazin-4-yl)-ethyl]-piperidin-4-yl}-N-[5-(3-phenyl-ureido)-pentyl]-benzamide], for which the IC50 was 0.53 µM.

As for `O=C1COc2ccccc2N1CCN1CCC(c2ccc(Cl)cc2)CC1` [Cpd 85, 4-{2-[4-(4-chloro-phenyl)-piperidin-1-yl]-ethyl}-4H-benzo[1,4]oxazin-3-one], the IC50 came out at 18 µM.

For `O=C1COc2ccccc2N1CCN1CCC(c2ccccc2)CC1` [Cpd 86, 4-[2-(4-phenyl-piperidin-1-yl)-ethyl]-4H-benzo[1,4]oxazin-3-one], the IC50 was determined as 24 µM.

`COc1ccc(C2CCN(CCN3C(=O)COc4ccccc43)CC2)cc1` [Cpd 87, 4-{2-[4-(4-methoxy-phenyl)-piperidin-1-yl]-ethyl}-4H-benzo[1,4]oxazin-3-one]: the IC50 is 47 µM.

For the compound `O=C1COc2ccccc2N1CCN1CCC(c2cccc(F)c2)CC1` [Cpd 88, 4-{2-[4-(3-fluoro-phenyl)-piperidin-1-yl]-ethyl}-4H-benzo[1,4]oxazin-3-one], the IC50 is 28 µM.

For `O=C1COc2ccccc2N1CCN1CCC(c2ccccc2F)CC1` [Cpd 89, 4-{2-[4-(2-fluoro-phenyl)-piperidin-1-yl]-ethyl}-4H-benzo[1,4]oxazin-3-one], the IC50 came out at 23 µM.

Turning to `Cc1ccc(C2CCN(CCN3C(=O)COc4ccccc43)CC2)cc1` [Cpd 90, 4-[2-(4-p-tolyl-piperidin-1-yl)-ethyl]-4H-benzo[1,4]oxazin-3-one], the IC50 was found to be 15 µM.

As to `Cc1ccccc1C1CCN(CCN2C(=O)COc3ccccc32)CC1` [Cpd 91, 4-[2-(4-o-tolyl-piperidin-1-yl)-ethyl]-4H-benzo[1,4]oxazin-3-one], the IC50 amounted to 21 µM.

In the case of `O=C1COc2ccccc2N1CCN1CCC(c2cccc(Cl)c2)CC1` [Cpd 92, 4-{2-[4-(3-chloro-phenyl)-piperidin-1-yl]-ethyl}-4H-benzo[1,4]oxazin-3-one], the IC50 came out at 20 µM.

For the compound `COC(=O)c1ccccc1C1CCN(CCN2C(=O)COc3ccccc32)CC1` [Cpd 93], the IC50 came out at 32 µM.

For the compound `CC(C)(C)OC(=O)N1CCN(CCNC(=O)c2ccccc2C2CC3CCC(C2)N3CCN2C(=O)COc3ccccc32)CC1` (centres unmarked) [Cpd 96, 4-[2-(2-{8-[2-(3-oxo-2,3-dihydro-benzo[1,4]oxazin-4-yl)-ethyl]-8-aza-bicyclo[3.2.1]oct-3-yl}-benzoylamino)-ethyl]-piperazine-1-carboxylic acid tert-butyl ester], the IC50 turned out to be 3.5 µM.

Take `CC(C)(C)OC(=O)NCCCCCNC(=O)c1ccccc1C1CC2CCC(C1)N2CCN1C(=O)COc2ccccc21` (centres unmarked) [Cpd 97, [5-(2-{8-[2-(3-oxo-2,3-dihydro-benzo[1,4]oxazin-4-yl)-ethyl]-8-aza-bicyclo[3.2.1]oct-3-yl}-benzoylamino)-pentyl]-carbamic acid tert-butyl ester]: the IC50 came to 5.4 µM.

On to `O=C1COc2ccccc2N1CCN1C2CCC1CC(c1ccccc1)C2` (centres unmarked) [Cpd 101, 4-[2-(3-phenyl-8-aza-bicyclo[3.2.1]oct-8-yl)-ethyl]-4H-benzo[1,4]oxazin-3-one], for which the IC50 was 19 µM.

Take `CC1C=C(c2ccc(Cl)cc2C(=O)NCCCCCNC(=O)OC(C)(C)C)CC(C)N1CCN1C(=O)COc2ccccc21` (centres unmarked) [Cpd 102, [5-(5-chloro-2-{2,6-dimethyl-1-[2-(3-oxo-2,3-dihydro-benzo[1,4]oxazin-4-yl)-ethyl]-1,2,3,6-tetrahydro-pyridin-4-yl}-benzoylamino)pentyl]-carbamic acid tert-butyl ester]: the IC50 was found to be 7.6 µM.

Consider `O=C1COc2ccccc2N1CCN1CCC(C(=O)NCc2ccccc2)(c2ccccc2)CC1` [Cpd 104, 1-[2-(3-oxo-2,3-dihydro-benzo[1,4]oxazin-4-yl)-ethyl]-4-phenyl-piperidine-4-carboxylic acid benzylamide], for which the IC50 was determined as 26 µM.

Take `O=C1COc2ccccc2N1CCN1CCC(C(=O)NCCc2ccccc2)(c2ccccc2)CC1` [Cpd 105, 1-[2-(3-oxo-2,3-dihydro-benzo[1,4]oxazin-4-yl)-ethyl]-4-phenyl-piperidine-4-carboxylic acid phenethyl-amide]: the half-maximal inhibitory concentration (IC50) was 7 µM.

In the case of `CN(CCc1ccccc1)C(=O)C1(c2ccccc2)CCN(CCN2C(=O)COc3ccccc32)CC1` [Cpd 106, 1-[2-(3-oxo-2,3-dihydro-benzo[1,4]oxazin-4-yl)-ethyl]-4-phenyl-piperidine-4-carboxylic acid methyl-phenethyl-amide], the IC50 worked out at 14 µM.

As to `O=C1COc2ccccc2N1CCN1CCC(C(=O)NCCCc2ccccc2)(c2ccccc2)CC1` [Cpd 107, 1-[2-(3-oxo-2,3-dihydro-benzo[1,4]oxazin-4-yl)-ethyl]-4-phenyl-piperidine-4-carboxylic acid (3-phenyl-propyl)-amide], the IC50 is 9.1 µM.

Consider `O=C1COc2ccccc2N1CCN1CCC(C(=O)NCCCCc2ccccc2)(c2ccccc2)CC1` [Cpd 108, 1-[2-(3-oxo-2,3-dihydro-benzo[1,4]oxazin-4-yl)-ethyl]-4-phenyl-piperidine-4-carboxylic acid (4-phenyl-butyl)-amide], for which the IC50 amounted to 8.8 µM.

As to `O=C1COc2ccccc2N1CCN1CCC(C(=O)NCCc2ccccc2)(c2ccc(Cl)cc2)CC1` [Cpd 109, 4-(4-chloro-phenyl)-1-[2-(3-oxo-2,3-dihydro-benzo[1,4]oxazin-4-yl)-ethyl]-piperidine-4-carboxylic acid phenethyl-amide], the IC50 was 5 µM.

For orientation: IC50 means the concentration at which inhibition is half-maximal.
